The numbers were not newly measured in PMC12308805, “Ultrahigh-Throughput Virtual Screening Strategies against PPI Targets: A Case Study of STAT Inhibitors” (Journal of Chemical Information and Modeling, 2025), which cites them from elsewhere.

Square brackets hold non-standard residues; d marks the D form. Peptide text beside a SMILES is read from it. * marks the point of attachment. βNA = c1ccc2cc(N*)ccc2c1

In the first data set the test system is STAT3. As to conditions: sheet 6QHD_actives_decoys; retrospective screening set for STAT3 SH2 domain (PDB 6QHD); […]; ref DUD-E; cited from earlier work.
For the compound `COC1=C[C@]23CCCN2CCc2cc4c(cc2[C@@H]3[C@@H]1OC(=O)[C@@](O)(CCCC(C)(C)O)CC(=O)O)OCO4` [Decoy432], the Type entry is listed as “Inactive (Decoy)”.
With `NCCCC[C@H](NC(=O)[C@@H](CC(=O)O)NC(=O)[C@@H](CC(=O)O)NC(=O)[C@@H](CC(=O)O)NC(=O)[C@@H](CC(=O)O)NC(=O)CN)C(=O)Nc1ccc2ccccc2c1` [Decoy438] (H-G[dD][dD][dD][dD]K-βNA), the Type result is reported as “Inactive (Decoy)”.
For the compound `Cc1ccc(NC(=O)CCC(=O)NNC(=O)CCCCC(=O)NNC(=O)CCC(=O)Nc2ccc(C)c(C)c2)cc1C` [Decoy444], the Type result is “Inactive (Decoy)”.
Consider `O=C(NCCNc1ccc(C(F)(F)F)cc1[N+](=O)[O-])c1ccc(CSc2ncn[nH]2)cc1` [Decoy448], for which the Type result was “Inactive (Decoy)”.
Turning to `O=[N+]([O-])c1ccc(S(=O)(=O)Nc2cccc(NS(=O)(=O)c3ccc([N+](=O)[O-])cc3)c2)cc1` [Decoy459], the Type result was “Inactive (Decoy)”.

Still in this data set, the particulars now being: sheet 6QHD_actives_decoys; retrospective screening set for STAT3 SH2 domain (PDB 6QHD); decoys generated with DUD-E and presumed inactive, not tested; ref DUD-E; cited from earlier work.
For the compound `COc1cc(/C=N/NC(=O)CCCCC(=O)N/N=C/c2cc(Br)c(O)c(OC)c2)cc(Br)c1O` [Decoy433], the Type entry is on record as “Inactive (Decoy)”.
For the compound `CCCCCOc1ccc([C@H]2C(C(=O)c3ccc4c(c3)OCCO4)=C(O)C(=O)N2CCCN2CCOCC2)cc1OCC` [Decoy434], the Type entry is on record as “Inactive (Decoy)”.
On to `COC(=O)c1ccc(NC(=O)CSc2nc3ccc(NC(=O)CSc4nnc(-c5ccc(N)cc5)n4C)cc3s2)cc1` [Decoy435], for which the Type entry is recorded as “Inactive (Decoy)”.
On to `CCCC(=O)C1=C(N2CCN(C3=C(C(=O)CCC)C(O)=C(C(=O)OC)C(C)(C)C3)CC2)CC(C)(C)[C@H](C(=O)OC)C1=O` [Decoy436], for which the Type entry is given as “Inactive (Decoy)”.
Consider `CCOC(=O)c1c(NC(=O)CSc2n[nH]c(N/N=C/c3ccc(F)cc3)n2)sc2c1CCCC2` [Decoy437], for which the Type entry is “Inactive (Decoy)”.
Take `Nn1c(N/N=C/c2c(O)ccc3ccccc23)nnc1SCCC(=O)Nc1ccc2c(c1)C(=O)NC2=O` [Decoy439]: the Type entry is “Inactive (Decoy)”.
For the compound `O=C(CCCCCNC(=O)CCCC[C@H]1SC[C@H]2NC(=O)N[C@@H]21)NC/C=C/c1cn([C@@H]2O[C@@H](CO[P@](=O)(O)O[P@](=O)(O)OP(=O)(O)O)[C@@H](O)[C@H]2O)c(=O)nc1O` [Decoy440], the Type entry is reported as “Inactive (Decoy)”.
In the case of `Nn1c(N/N=C/c2ccc([N+](=O)[O-])cc2)nnc1SCC(=O)Nc1ccc(OC(F)(F)F)cc1` [Decoy441], the Type result was “Inactive (Decoy)”.
As for `CC(=O)O[C@H]1[C@@H](O)[C@H](CO)O[C@H](O[C@@H](C/N=C/c2c(O)ccc3ccccc23)[C@@H](CO)O[C@H](O)C/N=C/c2c(O)ccc3ccccc23)[C@@H]1O` [Decoy442], the Type entry is on record as “Inactive (Decoy)”.
Regarding `CCCCCO[C@@H]1[C@H]2OC(C)(C)O[C@H]2O[C@@H]1[C@@H](O)CO[C@@H]1O[C@H](COC(C)=O)[C@@H](OC(C)=O)[C@H](OC(C)=O)[C@H]1NC(C)=O` [Decoy443], the Type result is reported as “Inactive (Decoy)”.
As to `CSc1ccc(S(=O)(=O)NCC(=O)OCC(=O)Nc2cccc3nsnc23)cc1[N+](=O)[O-]` [Decoy445], the Type result was “Inactive (Decoy)”.
Consider `CCSc1ccccc1NC(=O)CSc1n[nH]c(N/N=C/c2cc([N+](=O)[O-])ccc2O)n1` [Decoy446], for which the Type entry is on record as “Inactive (Decoy)”.
For the compound `COCCN1C(=O)c2cc(C(=O)Nc3ccc(OC)c(OC)c3)ccc2[C@H]1Nc1ccc(OC)c(OC)c1` [Decoy447], the Type result is reported as “Inactive (Decoy)”.
Regarding `CCOC(=O)c1c(NC(=O)CCSc2nnc(N/N=C/c3ccc(C)cc3)n2N)sc2c1CCCC2` [Decoy449], the Type entry is “Inactive (Decoy)”.
Regarding `CCCNC(=O)CN(C)C(=O)c1ccc(N2CCNCC2)c(NS(=O)(=O)c2ccc(CCC)cc2)c1` [Decoy450], the Type result is recorded as “Inactive (Decoy)”.
For `Cc1cccn2c(=O)c(/C=C3\SC(=S)N(CCCCCC(=O)O)C3=O)c(NCCCn3ccnc3)nc12` [Decoy451], the Type result is “Inactive (Decoy)”.
Regarding `CC[C@@H](c1nnnn1C(C)(C)CC)N(Cc1ccc(OC)cc1)Cc1cc2c(C)ccc(C)c2[nH]c1=O` [Decoy452], the Type entry is reported as “Inactive (Decoy)”.
With `CCN(CC)c1ccc(-n2nc3cc(C)c(NC(=S)NC(=O)c4ccc(OC)cc4OC)cc3n2)cc1` [Decoy453], the Type result was “Inactive (Decoy)”.
For the compound `O=C(NCCCCCCNC(=O)OCCN[C@H]1CCS(=O)(=O)C1)OCCN[C@H]1CCS(=O)(=O)C1` [Decoy454], the Type entry is recorded as “Inactive (Decoy)”.
With `CCOC(=O)c1[nH]c(C)c(C(=O)C2=C(O)C(=O)N(CCN(CC)CC)[C@H]2c2ccc(OC)c(OC)c2)c1C` [Decoy455], the Type result is reported as “Inactive (Decoy)”.
On to `Cc1nn(Cc2ccc(Cl)cc2Cl)c(C)c1NC(=S)Nc1ccc(S(=O)(=O)Nc2ncccn2)cc1` [Decoy456], for which the Type entry was “Inactive (Decoy)”.
For `Cc1ccc(NC(=O)CN(C)C(=O)[C@H](C)OC(=O)CNC(=O)c2ccc(Cl)c([N+](=O)[O-])c2)cc1` [Decoy457], the Type entry is listed as “Inactive (Decoy)”.
`CC(=O)N[C@H]1[C@H](O[C@H]2[C@H](O[C@H](C)C(=O)O)[C@@H](NC(C)=O)[C@@H](OC(C)=O)O[C@@H]2COC(C)=O)O[C@H](COC(C)=O)[C@@H](OC(C)=O)[C@@H]1OC(C)=O` [Decoy458]: the Type result was “Inactive (Decoy)”.
In the case of `CCOc1ccc([C@@H]2c3c(-c4cc(Cl)c(C)cc4O)n[nH]c3C(=O)N2CCCOC)cc1OCC` [Decoy460], the Type entry is listed as “Inactive (Decoy)”.
Regarding `NCCCCCC(=O)OC[C@@H]1O[C@@H](Oc2ccc(-c3coc4cc(O)cc(O)c4c3=O)cc2)[C@@H](O)[C@H](O)[C@@H]1O` [Decoy461], the Type entry was “Inactive (Decoy)”.
Regarding `O=C(COCCN1CCN([C@@H](c2ccccc2)c2ccc(Cl)cc2)CC1)O[C@@H]1O[C@@H](CO)[C@@H](O[C@@H]2O[C@@H](CO)[C@H](O)[C@H](O)[C@H]2O)[C@H](O)[C@H]1O` [Decoy462], the Type entry is “Inactive (Decoy)”.
For `CC(=O)O[C@H]1[C@@H](O)[C@@H](O[C@@H](/C=N/c2ccc3c(c2)C(=O)NC3=O)[C@@H](CO)O[C@H](O)/C=N/c2ccc3c(c2)C(=O)NC3=O)O[C@@H](CO)[C@H]1O` [Decoy463], the Type result was “Inactive (Decoy)”.
Take `CCOC(=O)[C@@](NC(=O)c1cccc(Cl)c1)(Nc1ccc(S(=O)(=O)Nc2ccc(OC)nn2)cc1)C(F)(F)F` [Decoy464]: the Type entry is listed as “Inactive (Decoy)”.
For the compound `CCn1nc(C)c(CCN(C)c2ncc(C(=O)O)cc2NS(=O)(=O)c2ccc(C(C)=O)cc2)c1C` [Decoy465], the Type entry was “Inactive (Decoy)”.
As to `CCc1nnc(NS(=O)(=O)c2ccc(NC(=O)c3ccc(S(=O)(=O)N(CCC#N)CCC#N)cc3)cc2)s1` [Decoy466], the Type entry was “Inactive (Decoy)”.
Take `CCCCC(=O)Nc1ccc(NC(=S)NC(=O)c2ccc(OCC)c([N+](=O)[O-])c2)cc1OC` [Decoy467]: the Type entry is recorded as “Inactive (Decoy)”.
With `COC(=O)[C@@H]1[C@H](NC(=O)[C@@H]2CCOC2)c2cc(NCC(C)(C)C)cnc2N1CCc1c[nH]c2ccccc12` [Decoy468], the Type entry is reported as “Inactive (Decoy)”.
For `C[C@@H]1O[C@@H](O[C@H]2[C@H](O)C[C@H](O[C@H]3[C@H](O)C[C@H](O[C@H]4CC[C@@]5(C)[C@H](CC[C@@H]6[C@@H]5CC[C@]5(C)[C@@H](C7=CC(=O)OC7)CC[C@]65O)C4)O[C@@H]3C)O[C@@H]2C)C[C@@H](O)[C@@H]1O` [Decoy469], the Type entry is given as “Inactive (Decoy)”.
As for `C[C@@H]1O[C@H](O[C@@H]2CC[C@]3(C)[C@H](CC[C@@H]4[C@@H]3CC[C@@]3(C)[C@@H](C5=CC(=O)OC5)CC[C@]43O)C2)C[C@H](O)[C@@H]1O[C@@H]1C[C@H](O)[C@H](O[C@H]2C[C@@H](O)[C@H](O)[C@@H](C)O2)[C@H](C)O1` [Decoy470], the Type result was “Inactive (Decoy)”.
Take `C[C@@H]1O[C@@H](O[C@H]2[C@H](O[C@@H]3CC[C@@H]4C(=CC[C@@H]5[C@@]4(C)C(=O)C[C@]4(C)[C@H]([C@@]6(C)O[C@@H](C(C)(C)O)CC6=O)[C@H](O)C[C@@]54C)C3(C)C)O[C@H](CO)[C@@H](O)[C@@H]2O)[C@H](O)[C@H](O)[C@H]1O` [Decoy471]: the Type entry is recorded as “Inactive (Decoy)”.
Take `C[C@@H]1O[C@@H](O[C@H]2[C@H](O[C@@H]3CC[C@@H]4C(=CC[C@@H]5[C@@]4(C)C(=O)C[C@]4(C)[C@H]([C@@]6(C)O[C@H](C(C)(C)O)CC6=O)[C@H](O)C[C@@]54C)C3(C)C)O[C@H](CO)[C@@H](O)[C@@H]2O)[C@H](O)[C@H](O)[C@H]1O` [Decoy472]: the Type result is on record as “Inactive (Decoy)”.
Regarding `CCOC(=O)c1ccc(NC(=O)CSc2nnc(CNC(=O)COc3ccccc3)n2-c2cccc(C)c2)cc1` [Decoy473], the Type entry is reported as “Inactive (Decoy)”.
With `COc1cc(-c2nnc(SCC(=O)N/N=C/c3cccc(O)c3)n2-c2ccccc2)cc(OC)c1OC` [Decoy474], the Type result is “Inactive (Decoy)”.
With `CC(=O)O[C@@H]1[C@@H](O)[C@@H](O[C@@H](C/N=C/c2c(O)cc(O)c3ccccc23)[C@@H](CO)O[C@H](O)C/N=C/c2c(O)cc(O)c3ccccc23)O[C@@H](CO)[C@H]1O` [Decoy475], the Type result is reported as “Inactive (Decoy)”.
As to `CCCSc1nnc(/N=C(\O)CSc2nnc(N/N=C/c3c(C)nn(C(C)C)c3C)n2N)s1` [Decoy476], the Type result is given as “Inactive (Decoy)”.
`CCNC(=O)COc1ccc(NC(=O)c2cc(S(=O)(=O)NCc3ccco3)ccc2C)cc1` [Decoy477]: the Type result was “Inactive (Decoy)”.
Take `CCN(CC)S(=O)(=O)c1cc(NC(=O)CSc2nnc(C(F)(F)F)n2N)ccc1C` [Decoy478]: the Type result is reported as “Inactive (Decoy)”.
In the case of `CCN[C@H](c1cc(Br)ccc1Cl)c1cc(Br)ccc1Br` [Decoy479], the Type result is “Inactive (Decoy)”.
On to `COc1ccc(S(=O)(=O)N(CC(=O)Nc2ccccc2C(=O)NCc2ccco2)c2ccc(F)cc2)cc1OC` [Decoy480], for which the Type result was “Inactive (Decoy)”.
Take `COC(=O)CNC(=O)C[C@@](C)(O)CC(=O)O[C@H]1[C@@H](O)C[C@@]2(C)C3=C(CC[C@H]2C1(C)C)[C@@]1(C)CC[C@H]([C@H](CO)CC[C@H](O)C(C)(C)O)[C@]1(C)[C@@H](O)C3` [Decoy481]: the Type entry was “Inactive (Decoy)”.
